# Test results published in US8703796B2, “3H-imidazo [4, 5-B] pyridine-6-carboxamides as anti-inflammatory agents” (Boehringer Ingelheim International GmbH, priority 2008, dated 2014).
# Where a name gives a salt, the structure may show the parent alone.
# Target: T1, recombinant human mPGES-1 (Homo sapiens, UniProt O14684)
# T1 construct: made in house; host or cells: Rosetta E. coli (microsomal/membrane fraction)
# T1 sequence (O14684 1-152): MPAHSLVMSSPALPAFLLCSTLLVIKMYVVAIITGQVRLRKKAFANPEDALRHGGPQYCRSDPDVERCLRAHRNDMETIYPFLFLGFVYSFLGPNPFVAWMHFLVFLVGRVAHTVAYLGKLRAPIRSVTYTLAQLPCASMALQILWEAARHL
# Assay: mPGES-1 inhibition, HTRF detection of PGE2
# Format: biochemical
# Method: Microsomes from Rosetta E. coli bacteria expressing recombinant human mPGES-1 is dissolved in 0.1 M KPi pH 7.4 buffer containing 2.5 mM GSH. 50 μl of the enzyme is subsequently dispensed in a 384-well plate. 0.5 μl of the inhibitor dissolved in DMSO at is thereafter added to each well and incubated for 25 minutes at room temperature. Subsequently, 2 μl of PGH2 dissolved in an appropriate solvent is added to each well and after one minute the acidified stop solution containing FeCl2 is added. 4 μl of the total volume is transferred to a separate plate and diluted 750-fold in two separate steps before HTRF detection of PGE2.
# The HTRf detection is performed by the use of a commercially available kit from CisBio essentially according to the manufacturer's protocol. Briefly, 10 μl of the diluted sample is transferred to a white 384-well plate. 5 μl of d2 and 5 μl Eu3+-Cryptate labeled anti-PGE2 is added to each well containing samples by the use of a Multidrop. The plate is covered with a plastic self-adhesive film, centrifuged at 1200 rpm for 1 minute and subsequently stored at +4° C. over night.
# After over night incubation the fluorescence is measured by the use of an appropriate microplate reader. The fluorescence of europium cryptate, and d2 are measured using the following excitation and emission wavelength, europium cryptate: λmax^ex=307 nm, λmax^em=620 nm and d2: λmax^ex=620 nm, λmax^em=665 nm), respectively. The extent of the specific FRET is measured as a ratio of the emission intensity at 665 nm vs. that at 620 nm. A standard curve using synthetic PGE2 is used to quantify the amount of PGE2 in unknown samples.
Compound,inhibition at 10 µM [%],inhibition at 1 µM [%]
"O=C(Nc1ccc(Br)cc1)c1cc2nc(Nc3c(Cl)cc(F)cc3Cl)[nH]c2nc1OCC(F)(F)F [Example 820, 2-(2,6-Dichloro-4-fluoro-phenylamino)-5-(2,2,2-trifluoro-ethoxy)-N-(4-bromo-phenyl)-3H-imidazo[4,5-b]pyridine-6-carboxamide]",99,
"Cn1c(Nc2ccccc2C(F)(F)F)nc2cc(C(=O)Nc3ccc(Br)cc3)c(OCC(F)F)nc21 [Example 772, N-(4-Bromo-phenyl)-2-(2-trifluoromethyl-phenylamino)-5-(2,2-difluoroethoxy)-3-methyl-3H-imidazo[4,5-b]pyridine-6-carboxamide]",,100
"Cn1c(Nc2c(Cl)cncc2Cl)nc2cc(C(=O)N[C@H]3CC[C@H](C(F)(F)F)CC3)c(OC3CCOC3)nc21 (stereo partly drawn) [Example 846, 2-(3,5-Dichloro-pyridin-4-ylamino)-5-(tetrahydrofuran-3-yl-oxy)-N-(trans-4-trifluoromethyl-cyclohexyl)-3-methyl-3H-imidazo[4,5-b]pyridine-6-carboxamide]",100,
"O=C(N[C@H]1CC[C@H](C(F)(F)F)CC1)c1cc2nc(Nc3cccnc3C(F)(F)F)[nH]c2nc1OCC(F)F [Example 798, 2-(2-Trifluoromethyl-pyridin-3-ylamino)-5-(2,2-difluoro-ethoxy)-N-(trans-4-trifluoromethyl-cyclohexyl)-3H-imidazo[4,5-b]pyridine-6-carboxamide]",87,
"O=C(Nc1cc(C(F)(F)F)ccn1)c1cc2nc(Nc3c(Cl)cncc3Cl)[nH]c2nc1OCC(F)(F)F [Example 857, 2-(3,5-Dichloro-pyridin-4-ylamino)-5-(2,2,2-trifluoro-ethoxy)-N-(4-trifluoromethyl-pyridin-2-yl)-3H-imidazo[4,5-b]pyridine-6-carboxamide]",99,
"O=C(NCc1ccccc1C(F)(F)F)c1cc2nc(Nc3c(Cl)cncc3Cl)[nH]c2nc1OCC(F)(F)F [Example 853, 2-(3,5-Dichloro-pyridin-4-ylamino)-5-(2,2,2-trifluoro-ethoxy)-N-(2-trifluoromethyl-benzyl)-3H-imidazo[4,5-b]pyridine-6-carboxamide]",100,
"COCCOc1nc2[nH]c(Nc3c(Cl)cncc3Cl)nc2cc1C(=O)NCC(F)(F)C(F)(F)C(F)(F)C(F)(F)F [Example 802, 2-(3,5-Dichloro-pyridin-4-ylamino)-5-(2-methoxy-ethoxy)-N-(2,2,3,3,4,4,5,5,5-nonafluoro-pentyl)-3H-imidazo[4,5-b]pyridine-6-carboxamide]",96,
"Cn1c(Nc2c(F)cccc2Cl)nc2cc(C(=O)Nc3ccc(Br)cc3)c(OCC(F)F)nc21 [Example 773, N-(4-Bromo-phenyl)-2-(2-fluoro-6-chloro-phenylamino)-5-(2,2-difluoroethoxy)-3-methyl-3H-imidazo[4,5-b]pyridine-6-carboxamide]",,100
"Cn1c(Nc2c(Cl)cc(F)cc2Cl)nc2cc(C(=O)Nc3ccc(Br)cc3)c(OCC(F)F)nc21 [Example 818, 2-(2,6-Dichloro-4-fluoro-phenylamino)-5-(2,2-difluoro-ethoxy)-N-(4-bromo-phenyl)-3-methyl-3H-imidazo[4,5-b]pyridine-6-carboxamide]",99,
"Cn1c(Nc2c(F)cccc2C(F)(F)F)nc2cc(C(=O)Nc3ccc(Br)cc3)c(OCC(F)F)nc21 [Example 771, N-(4-Bromophenyl)-2-(2-fluoro-6-trifluoromethylphenylamino)-5-(2,2-difluoro-ethoxy)-3-methyl-3H-imidazo[4,5-b]pyridine-6-carboxamide]",,100
"O=C(Nc1ccc(Br)cc1)c1cc2nc(Nc3c(Cl)cc(F)cc3Cl)[nH]c2nc1OCC(F)F [Example 822, 2-(2,6-Dichloro-4-fluoro-phenylamino)-5-(2,2-difluoro-ethoxy)-N-(4-bromo-phenyl)-3H-imidazo[4,5-b]pyridine-6-carboxamide]",100,
"Cn1c(Nc2c(Cl)cncc2Cl)nc2cc(C(=O)NCc3ccccc3C(F)(F)F)c(OCC(F)F)nc21 [Example 839, 2-(3,5-Dichloro-pyridin-4-ylamino)-5-(2,2-difluoro-ethoxy)-N-(2-trifluoromethyl-benzyl)-3-methyl-3H-imidazo[4,5-b]pyridine-6-carboxamide]",98,
"COCCOc1nc2[nH]c(Nc3c(Cl)cncc3Cl)nc2cc1C(=O)NCc1ccccc1C(F)(F)F [Example 800, 2-(3,5-Dichloro-pyridin-4-ylamino)-5-(2-methoxy-ethoxy)-N-((2-trifluoromethyl-phenyl)-methyl)-3H-imidazo[4,5-b]pyridine-6-carboxamide]",98,
"Cn1c(Nc2c(Cl)cncc2Cl)nc2cc(C(=O)Nc3ccc(Br)cc3)c(OCC(F)F)nc21 [Example 837, 2-(3,5-Dichloro-pyridin-4-ylamino)-5-(2,2-difluoro-ethoxy)-N-(4-bromo-phenyl)-3-methyl-3H-imidazo[4,5-b]pyridine-6-carboxamide]",96,
"O=C(NCC(F)(F)C(F)(F)C(F)(F)C(F)(F)F)c1cc2nc(Nc3c(Cl)cncc3Cl)[nH]c2nc1OCC(F)(F)F [Example 854, 2-(3,5-Dichloro-pyridin-4-ylamino)-5-(2,2,2-trifluoro-ethoxy)-N-(2,2,3,3,4,4,5,5,5-nonafluoro-pentyl)-3H-imidazo[4,5-b]pyridine-6-carboxamide]",96,
"CC(C)n1c(Nc2ccccc2Cl)nc2cc(C(=O)NC3CCC(C)(C)CC3)cnc21 [Example 541, 2-(2-Chlorophenylamino)-N-(4,4-dimethylcyclohexyl)-3-isopropyl-3H-imidazo[4,5-b]pyridine-6-carboxamide hydrochloride]",74,
"CCOc1nc2[nH]c(Nc3c(Cl)cncc3Cl)nc2cc1C(=O)NCC(F)(F)C(F)(F)C(F)(F)C(F)(F)F [Example 844, 2-(3,5-Dichloro-pyridin-4-ylamino)-5-ethoxy-N-(2,2,3,3,4,4,5,5,5-nonafluoro-pentyl)-3H-imidazo[4,5-b]pyridine-6-carboxamide]",100,
"O=C(N[C@H]1CC[C@H](C(F)(F)F)CC1)c1cc2nc(Nc3c(Cl)cc(F)cc3Cl)[nH]c2nc1OCC(F)(F)F [Example 827, 2-(2,6-Dichloro-4-fluoro-phenylamino)-5-(2,2,2-trifluoro-ethoxy)-N-(trans-4-trifluoromethyl-cyclohexyl)-3H-imidazo[4,5-b]pyridine-6-carboxamide]",100,
"CC(C)n1c(Nc2c(F)cccc2Cl)nc2cc(C(=O)NC3CCC(C)(C)CC3)cnc21 [Example 511, 2-(2-Chloro-6-fluorophenylamino)-N-(4,4-dimethylcyclohexyl)-3-isopropyl-3H-imidazo[4,5-b]pyridine-6-carboxamide]",96,
Cn1c(Nc2c(Cl)cccc2Cl)nc2cc(C(=O)N[C@H]3CC[C@H](C(F)F)CC3)cnc21 [Example 560],93,
"Cc1ccnc(C)c1Nc1nc2cc(C(=O)N[C@H]3CC[C@H](C(F)(F)F)CC3)c(OCC(F)F)nc2[nH]1 [Example 794, 2-(2,4-Dimethyl-pyridin-3-ylamino)-5-(2,2-difluoro-ethoxy)-N-(trans-4-trifluoromethyl-cyclohexyl)-3H-imidazo[4,5-b]pyridine-6-carboxamide]",100,
"CC1(C)CCC(NC(=O)c2cnc3[nH]c(Nc4c(F)cccc4Cl)nc3c2)CC1 [Example 466, 2-(2-Chloro-6-fluorophenylamino)-N-(4,4-dimethylcyclohexyl)-3H-imidazo[4,5-b]pyridine-6-carboxamide]",100,
"Cn1c(Nc2c(Cl)cc(F)cc2Cl)nc2cc(C(=O)N[C@H]3CC[C@H](C(F)(F)F)CC3)c(OCC(F)(F)F)nc21 [Example 814, 2-(2,6-Dichloro-4-fluoro-phenylamino)-5-(2,2,2-trifluoro-ethoxy)-N-(trans-4-trifluoromethyl-cyclohexyl)-3-methyl-3H-imidazo[4,5-b]pyridine-6-carboxamide]",97,
"CC(=O)N(C)CCOc1nc2c(cc1C(=O)Nc1ccc(Br)cc1)nc(Nc1c(Cl)cncc1Cl)n2C [Example 810, 2-(3,5-Dichloro-pyridin-4-ylamino)-5-(2-(acetyl-methyl-amino)-ethoxy)-N-(4-bromo-phenyl)-3-methyl-3H-imidazo[4,5-b]pyridine-6-carboxamide]",96,
"CC(=O)N(C)CCOc1nc2c(cc1C(=O)NCC(F)(F)C(F)(F)C(F)(F)C(F)(F)F)nc(Nc1c(Cl)cncc1Cl)n2C [Example 811, 2-(3,5-Dichloro-pyridin-4-ylamino)-5-(2-(acetyl-methyl-amino)-ethoxy)-N-(2,2,3,3,4,4,5,5,5-nonafluoro-pentyl)-3-methyl-3H-imidazo[4,5-b]pyridine-6-carboxamide]",,94
